Assay results reported in paper PMC9637222, “Autoinducer-2 and bile salts induce c-di-GMP synthesis to repress the T3SS via a T3SS chaperone” (Nature Communications, 2022).
Several values for one entry are separate records, joined by “and”; a condition that tells them apart may be missing. Equal values may be shown once.

Experiments:
[1] = biological target: KMK13526-LBD (H216Y/Q245D) (Pluralibacter gergoviae, UniProt A0A0J5L7D7, H216Y/Q245D); settings: ITC binding stoichiometry n, individual replicates, Supplementary Figure 7d
Sequence of KMK13526-LBD (H216Y/Q245D) (A0A0J5L7D7 31-310 H216Y/Q245D): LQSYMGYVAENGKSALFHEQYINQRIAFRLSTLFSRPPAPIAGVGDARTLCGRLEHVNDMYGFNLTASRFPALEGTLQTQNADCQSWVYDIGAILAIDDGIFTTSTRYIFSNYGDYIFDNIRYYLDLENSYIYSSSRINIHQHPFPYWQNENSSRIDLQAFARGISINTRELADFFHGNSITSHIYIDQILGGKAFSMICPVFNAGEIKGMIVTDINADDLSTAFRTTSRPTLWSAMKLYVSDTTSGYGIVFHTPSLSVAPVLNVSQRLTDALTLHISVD

YeaJ-LBD = biological target: T1, YeaJ-LBD (Salmonella enterica subsp. enterica serovar Typhimurium, UniProt Q8ZPW4); assay: ITC: DPD/AI-2 binding to YeaJ-LBD; parameters: species or system S. Typhimurium
T1 sequence (Q8ZPW4 30-304): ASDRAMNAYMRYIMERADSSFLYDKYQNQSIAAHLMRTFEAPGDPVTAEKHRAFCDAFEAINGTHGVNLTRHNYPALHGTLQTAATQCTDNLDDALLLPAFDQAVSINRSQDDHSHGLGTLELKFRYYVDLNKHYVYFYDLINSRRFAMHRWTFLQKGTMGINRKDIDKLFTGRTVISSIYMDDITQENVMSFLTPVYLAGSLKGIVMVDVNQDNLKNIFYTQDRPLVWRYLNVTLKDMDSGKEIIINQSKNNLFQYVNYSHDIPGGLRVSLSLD
Method: (§1) ITC measurements were carried out at 20 °C with a Nano ITC Standard Volume isothermal calorimeter (TA Instruments, New Castle, DE) controlled by the ITCRun software. The N-terminal His6 tags of all purified proteins were removed before ITC analysis. For titrations with DPD/AI-2 (Omm Scientific), the tag-free proteins were dialyzed against a Tris buffer (25 mM Tris-HCl, 150 mM NaCl, pH 7.5) and diluted to 70 μM, while DPD/AI-2 was diluted with the same buffer to 700 μM. […] After being degassed, 1 ml of the protein and 250 μl of the ligand solution were added to the sample cell and the syringe, respectively. There were 25 injections per experiment and the stirring speed was 200 rpm. In control experiments, the ligand solution was titrated into the buffer in the sample cell to obtain the heat of dilution. Microcalorimetric data were corrected by subtracting the heats of dilution and fit to the independent binding site model using the NanoAnalyze software.

YeaJ-LBDD239A = YeaJ-LBDD239A (Salmonella enterica subsp. enterica serovar Typhimurium, UniProt Q8ZPW4, D239A); assay: ITC: DPD/AI-2 binding to YeaJ-LBD D239A mutant; parameters: species or system S. Typhimurium; settings: head prints YeaJ-LBDY239A, individual experiments, source data Fig. 2d
Method: as §1

S. Typhimurium = assay: Cellular c-di-GMP quantification by LC-MS/MS; format: cell-based; settings: for Change of intracellular c-di-GMP concentration (in words): exogenous DPD/AI-2 (10 μM, 30 min)
Method: For stimulation with AI-2, the DPD/AI-2 solution was added to the shaking culture at OD600 of 1.3, followed by another 30 min of incubation at 37 °C. For induction by porcine bile salts and individual bile components (Sigma-Aldrich), substances were added to the static culture at OD600 of 1.1, followed by another 30 min of incubation at 37 °C. About 15 ml of culture was centrifuged and the cells were washed twice with phosphate-buffered saline (PBS, pH 7.0). The cell pellets were resuspended in 500 μl of extraction solution (acetonitrile/methanol/water, 40:40:20, v/v/v) and cooled on ice for 15 min. The samples were boiled for 10 min at 95 °C and then cooled again on ice for 15 min. After centrifugation at 20,000×g and 4 °C for 10 min, supernatants were transferred to new tubes on ice. The remaining pellets were used for two more extraction steps with 500 μl of the extraction solution without heating. Pooled supernatants for each sample were lyophilized, and pellets were resolubilized in 200 μl of distilled water. C-di-GMP concentrations were then measured by LC-MS/MS[63] (AB SCIEX QTRAP 6500+ LC-MS/MS System). Intracellular levels of c-di-GMP were normalized to the number of bacterial cells for each sample.

WP_034494714-LBD = WP_034494714-LBD (Buttiauxella agrestis, UniProt A0A085GF42); assay: ITC: DPD/AI-2 binding to WP_034494714-LBD; settings: individual replicates, Supplementary Figure 7c
Sequence of WP_034494714-LBD (A0A085GF42 27-302): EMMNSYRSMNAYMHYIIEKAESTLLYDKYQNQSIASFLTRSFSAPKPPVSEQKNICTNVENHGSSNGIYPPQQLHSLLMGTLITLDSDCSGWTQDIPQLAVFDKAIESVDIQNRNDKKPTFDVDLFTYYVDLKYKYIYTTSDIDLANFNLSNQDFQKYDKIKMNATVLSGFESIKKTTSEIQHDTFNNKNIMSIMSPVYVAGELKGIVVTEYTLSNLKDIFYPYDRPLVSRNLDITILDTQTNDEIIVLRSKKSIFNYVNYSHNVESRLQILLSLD

WP_000766134-LBD = biological target: T2, WP_000766134-LBD (Escherichia coli O157:H7, UniProt A0A0H3JEN8); assay: ITC: DPD/AI-2 binding to GAPES1 domain of the YeaJ homolog from EHEC O157:H7
T2 sequence (A0A0H3JEN8 31-304): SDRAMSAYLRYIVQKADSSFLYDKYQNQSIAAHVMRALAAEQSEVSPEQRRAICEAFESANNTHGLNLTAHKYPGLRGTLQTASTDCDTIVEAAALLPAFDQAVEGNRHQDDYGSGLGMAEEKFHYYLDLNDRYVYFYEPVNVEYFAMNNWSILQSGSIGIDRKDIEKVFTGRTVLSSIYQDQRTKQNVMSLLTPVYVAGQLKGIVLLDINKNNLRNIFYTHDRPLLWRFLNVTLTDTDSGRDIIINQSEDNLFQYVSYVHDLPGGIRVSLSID

YeaJ = assay: In vitro DGC activity assay of YeaJ (membrane fractions, HPLC of c-di-GMP); format: biochemical, S. Typhimurium; settings: 100 μM GTP; for Concentration of c-di-GMP: 30 °C
YeaJ-LBDY210A = YeaJ-LBDY210A (Salmonella enterica subsp. enterica serovar Typhimurium, UniProt Q8ZPW4, Y210A); assay: ITC: DPD/AI-2 binding to YeaJ-LBD Y210A mutant; parameters: species or system S. Typhimurium; settings: individual experiments, source data Fig. 2d
Method: as §1

KMK13526-LBD = KMK13526-LBD (Pluralibacter gergoviae, UniProt A0A0J5L7D7); assay: ITC: DPD/AI-2 binding to KMK13526-LBD; settings: ITC binding stoichiometry n, individual replicates, Supplementary Figure 7b
Sequence of KMK13526-LBD (A0A0J5L7D7 31-310): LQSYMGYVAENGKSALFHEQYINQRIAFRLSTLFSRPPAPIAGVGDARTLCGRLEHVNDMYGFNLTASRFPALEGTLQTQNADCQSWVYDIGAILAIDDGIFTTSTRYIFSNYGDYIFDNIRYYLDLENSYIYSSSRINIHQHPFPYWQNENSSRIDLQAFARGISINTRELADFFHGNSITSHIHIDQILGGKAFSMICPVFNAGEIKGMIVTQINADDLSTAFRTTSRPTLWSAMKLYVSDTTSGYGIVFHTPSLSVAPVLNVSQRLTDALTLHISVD

SipC = biological target: T3, SipC (Salmonella typhimurium, UniProt E1WAC8); format: binding, S. Typhimurium; settings: individual replicates, Supplementary Figure 19f
T3 construct: His6 (N, cleaved yes); made in house; host or cells: E. coli BL21(DE3) (pET28a-sipC)
T3 sequence (E1WAC8 whole entry): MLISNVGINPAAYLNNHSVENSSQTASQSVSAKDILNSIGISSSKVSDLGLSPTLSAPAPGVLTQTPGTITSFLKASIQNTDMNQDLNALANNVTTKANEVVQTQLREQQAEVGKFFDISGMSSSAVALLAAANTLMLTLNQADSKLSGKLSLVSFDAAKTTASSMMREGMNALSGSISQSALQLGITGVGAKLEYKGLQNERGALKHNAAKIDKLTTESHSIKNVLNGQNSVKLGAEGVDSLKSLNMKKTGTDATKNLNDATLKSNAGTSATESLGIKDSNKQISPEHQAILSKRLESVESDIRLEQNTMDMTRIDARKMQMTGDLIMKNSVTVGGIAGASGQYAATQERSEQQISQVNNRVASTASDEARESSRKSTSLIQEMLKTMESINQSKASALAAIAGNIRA
T3 sequence (P69066 whole entry partner): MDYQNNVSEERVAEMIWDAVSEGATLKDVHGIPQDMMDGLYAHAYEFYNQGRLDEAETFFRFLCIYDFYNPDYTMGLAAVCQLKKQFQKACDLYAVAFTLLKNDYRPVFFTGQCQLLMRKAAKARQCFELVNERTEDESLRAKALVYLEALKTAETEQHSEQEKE
Method: as §1
(§2) Supplementary Fig. 19 Isotherms representing binding of SicA and its variants with InvF, SipB and SipC as measured by ITC
(§3) ITC data and plots of injected heat for 25 automatic injections of 100 μM SicA (a, d, f),SicAK27A (b) or SicAN70A (c, e, g) into the sample cellcontaining 10 μM SipB (a-c), InvF (d, e), or SipC (f,g) are shown inthe upper and lower plots, respectively. […]

InvF = biological target: T4, InvF (Salmonella typhimurium, UniProt P69343); settings: individual replicates, Supplementary Figure 19d
T4 sequence (P69343 1-216): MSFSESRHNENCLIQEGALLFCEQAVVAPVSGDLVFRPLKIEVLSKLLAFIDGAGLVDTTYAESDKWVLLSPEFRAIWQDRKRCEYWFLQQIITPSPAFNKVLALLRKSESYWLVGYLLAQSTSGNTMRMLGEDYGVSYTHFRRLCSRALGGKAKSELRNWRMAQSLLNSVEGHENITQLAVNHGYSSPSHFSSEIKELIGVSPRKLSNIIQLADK
Method: as §1, §2, §3

SipB = biological target: SipB; parameters: species or system S. Typhimurium; settings: ITC, individual replicates, Supplementary Figure 19a; read-out: Kd, SicA binding to SipB
Method: as §1, §2, §3

[2] = individual experiments, source data Fig. 1d

For `CC(=O)C(=O)[C@@H](O)CO` [DPD/AI-2, autoinducer-2], the “n, DPD/AI-2 binding to KMK13526-LBDH216Y/Q245D” value [1] was 1.11 and 1.03 and 1.17, the Kd (YeaJ-LBD; 20 °C, mean ± s.d. of three independent experiments) was 150 ± 20 nM and the Kd (YeaJ-LBD; [2]) was 160 nM and 130 nM. The “n (complex stoichiometry)” value (YeaJ-LBD; [2]) was 1.20 and 1.19 and 1.04, the Kd (YeaJ-LBDD239A) was 17000 nM and the “n (complex stoichiometry)” value (YeaJ-LBDD239A) was 0.97 and 0.93. For the same compound, the “Change of intracellular c-di-GMP concentration (in words)” value (S. Typhimurium; ΔluxS mutant) was “significant increase”, the “c-di-GMP (fmol/107 cells)” value (S. Typhimurium; ΔluxS, 10 μM DPD/AI-2 for 30 min, LB, OD600 1.3, biological replicates) was 31.06 fmol/107 cells and 29.99 fmol/107 cells and 27.56 fmol/107 cells and the “Change of intracellular c-di-GMP concentration (in words)” value (S. Typhimurium; ΔyeaJΔluxS mutant) was “did not increase”. For the same compound, the “n, DPD/AI-2 binding to WP_034494714-LBD” value (WP_034494714-LBD; ITC binding stoichiometry n) was 0.94 and 0.97 and 0.98, the Kd (WP_034494714-LBD; read-out: Kd, DPD/AI-2 binding to WP_034494714-LBD, ITC) was 32000 nM and 39000 nM and 38000 nM and the “n, DPD/AI-2 binding to WP_000766134-LBD” value (WP_000766134-LBD; ITC binding stoichiometry n, individual replicates, Supplementary Figure 7a) was 1.18 and 1.17 and 1.13. The “AI-2 binding affinity (in words)” value (WP_000766134-LBD; ITC, GAPES1 domain of the YeaJ homolog from EHEC O157:H7) was “high affinity”, the Kd (WP_000766134-LBD; read-out: Kd, DPD/AI-2 binding to WP_000766134-LBD, ITC, individual replicates, Supplementary Figure 7a) was 120 nM and 170 nM and the “Concentration of c-di-GMP” value (YeaJ; 100 μM DPD/AI-2, 30 min) was 19.68 µM and 20.02 µM and 21.70 µM. For the same compound, the “Concentration of c-di-GMP” value (YeaJ; 100 μM DPD/AI-2, 60 min) was 32.50 µM and 32.49 µM and 31.69 µM, the “Concentration of c-di-GMP” value (YeaJ; 200 μM DPD/AI-2, 30 min) was 39.23 µM and 36.03 µM and 36.70 µM and the “Concentration of c-di-GMP” value (YeaJ; 200 μM DPD/AI-2, 60 min) was 44.10 µM and 43.39 µM and 41.58 µM. The “Effect on DGC activity of YeaJ in synthesizing c-di-GMP (in words)” value (YeaJ; in vitro, membrane fractions) was “stimulates the activity of YeaJ”, the Kd (YeaJ-LBDY210A) was 23000 nM and 29000 nM and 26000 nM and the “n (complex stoichiometry)” value (YeaJ-LBDY210A) was 1.02 and 0.93 and 1.04. For the same compound, the “n, DPD/AI-2 binding to KMK13526-LBD” value (KMK13526-LBD) was 0.93 and 1.03 and 0.86.
In the case of SicA, the “n, SicA binding to SipC” value (SipC; ITC binding stoichiometry n) is reported as 1.04 and 1.18 and 1.02, the Kd (SipC; ITC, read-out: Kd, SicA binding to SipC) is reported as 670 nM and 550 nM and the “n, SicA binding to InvF” value (InvF; ITC binding stoichiometry n) is reported as 1.00 and 1.13 and 1.16. The Kd (InvF; read-out: Kd, SicA binding to InvF, ITC) was 470 nM and 420 nM and 490 nM and the Kd (SipB) was 500 nM and 560 nM and 540 nM.
